# Data taken from paper PMC10343355, “Finding the Right Solvent: A Novel Screening Protocol for Identifying Environmentally Friendly and Cost-Effective Options for Benzenesulfonamide” (Molecules, 2023).
# Experiment: Shake-flask solubility of BSA in neat solvents and aqueous binary mixtures, spectrophotometric determination at 264 nm
# Type: physicochemical
# Conditions: for log(x1)exp: mole fraction solubility
# Protocol: In order to determine the solubility of BSA in the studied solvents, excess amounts of it were added to test tubes pre-filled with a particular solvent or a binary mixture of this solvent and water in different molar proportions. Saturated solutions prepared in this manner were placed in an ES-20/60 Orbital Shaker Incubator from Biosan (Riga, Latvia) and incubated for 24 h at different temperatures. Four temperatures were used in the range from 25 °C to 40 °C with 5 °C intervals. The temperature in the incubator was adjusted with 0.1-degree accuracy with a 0.5-degree variance in a 24 h cycle. Simultaneously, the samples were mixed at 60 rev/min. In the next stage, the filtration of the samples took place, utilizing syringes equipped with PTFE filters with 0.22 µm pore size. Since the temperature difference between the measured solutions and used instruments can possibly lead to precipitation, all of the used test tubes, pipette tips, syringes, and filters were initially heated. This was carried out by placing them in the same incubator as the samples and heating them at exactly the same temperature prior to the handling of the samples. This was particularly important in the case of elevated temperatures, as the difference between, e.g., 40 °C and room temperature is quite extensive. Then, small amounts of the obtained filtrate were diluted in different test tubes containing methanol and measured spectrophotometrically. In order to determine the mole fractions of BSA in the samples, their density was also measured by weighing a 1 mL volume of each of the solutions, taken by using an Eppendorf Reference 2 pipette (Hamburg, Germany), in 10 mL volumetric flasks. The systematic error of the pipette was 6 μL. The precision of the RADWAG (Radom, Poland) AS 110.R2 PLUS analytical balance that was used in this study was 0.1 mg. The A360 spectrophotometer from AOE Instruments (Shanghai, China) was used for solubility determination. The spectra were recorded in the 190 nm to 400 nm wavelength range with a 1 nm resolution. Methanol was used for both the dilution of the samples and the initial calibration of the spectrophotometer. The analytical wavelength was determined to be 264 nm, and the absorbance of the samples at this wavelength was used for the determination of the BSA concentration in the samples and the subsequent calculation of its mole fractions. Three separate measurements were used, and the resulting values were averaged. The calibration curve for BSA was generated by preparing successive dilutions of an initial stock solution and performing spectrophotometric measurements of the resulting solutions with decreasing concentrations. The molar concentrations of measured solutions were 3.19 × 10^−3, 2.84 × 10^−3, 2.46 × 10^−3, 2.13 × 10^−3, 1.88 × 10^−3, 1.60 × 10^−3, 1.26 × 10^−3, 9.53 × 10^−4, 5.70 × 10^−4, and 4.80 × 10^−4 M). The relationship between the absorbance values at 264 nm and the solution concentration was described by the linear equation A = 470.86 × C + 0.0093 (A—absorbance; C—molar concentration), with a determination coefficient R^2 equal 0.9996, denoting high linearity.
smiles,measurement,setting,value
"NS(=O)(=O)c1ccccc1 [BSA, Benzenesulfonamide]","solubility, X^exp × 10^3","4FM+water, x2*(4FM)=0.2, 298.15 K",23.42 ± 0.86 mole fraction × 10^3
same,"solubility, X^exp × 10^3","4FM+water, x2*(4FM)=0.2, 303.15 K",32.61 ± 1.65 mole fraction × 10^3
same,"solubility, X^exp × 10^3","4FM+water, x2*(4FM)=0.2, 308.15 K",48.14 ± 1.59 mole fraction × 10^3
same,"solubility, X^exp × 10^3","4FM+water, x2*(4FM)=0.2, 313.15 K",69.19 ± 2.56 mole fraction × 10^3
same,"solubility, X^exp × 10^3","4FM+water, x2*(4FM)=0.4, 298.15 K",45.67 ± 0.33 mole fraction × 10^3
same,"solubility, X^exp × 10^3","4FM+water, x2*(4FM)=0.4, 303.15 K",68.93 ± 1.12 mole fraction × 10^3
same,"solubility, X^exp × 10^3","4FM+water, x2*(4FM)=0.4, 308.15 K",102.78 ± 3.56 mole fraction × 10^3
same,"solubility, X^exp × 10^3","4FM+water, x2*(4FM)=0.4, 313.15 K",142.57 ± 6.01 mole fraction × 10^3
same,"solubility, X^exp × 10^3","4FM+water, x2*(4FM)=0.6, 298.15 K",61.48 ± 0.85 mole fraction × 10^3
same,"solubility, X^exp × 10^3","4FM+water, x2*(4FM)=0.6, 303.15 K",101.16 ± 0.91 mole fraction × 10^3
same,"solubility, X^exp × 10^3","4FM+water, x2*(4FM)=0.6, 308.15 K",146.31 ± 6.19 mole fraction × 10^3
same,"solubility, X^exp × 10^3","4FM+water, x2*(4FM)=0.6, 313.15 K",196.38 ± 7.85 mole fraction × 10^3
same,"solubility, X^exp × 10^3","4FM+water, x2*(4FM)=0.8, 298.15 K",68.53 ± 0.63 mole fraction × 10^3
same,"solubility, X^exp × 10^3","4FM+water, x2*(4FM)=0.8, 303.15 K",118.09 ± 6.45 mole fraction × 10^3
same,"solubility, X^exp × 10^3","4FM+water, x2*(4FM)=0.8, 308.15 K",178.71 ± 6.67 mole fraction × 10^3
same,"solubility, X^exp × 10^3","4FM+water, x2*(4FM)=0.8, 313.15 K",242.26 ± 2.09 mole fraction × 10^3
same,"solubility, X^exp × 10^3","DMF+water, x2*(DMF)=0.2, 298.15 K",42.18 ± 0.83 mole fraction × 10^3
same,"solubility, X^exp × 10^3","DMF+water, x2*(DMF)=0.2, 303.15 K",46.69 ± 1.75 mole fraction × 10^3
same,"solubility, X^exp × 10^3","DMF+water, x2*(DMF)=0.2, 308.15 K",54.78 ± 1.76 mole fraction × 10^3
same,"solubility, X^exp × 10^3","DMF+water, x2*(DMF)=0.2, 313.15 K",63.21 ± 1.40 mole fraction × 10^3
same,"solubility, X^exp × 10^3","DMF+water, x2*(DMF)=0.4, 298.15 K",161.16 ± 3.97 mole fraction × 10^3
same,"solubility, X^exp × 10^3","DMF+water, x2*(DMF)=0.4, 303.15 K",179.12 ± 10.87 mole fraction × 10^3
same,"solubility, X^exp × 10^3","DMF+water, x2*(DMF)=0.4, 308.15 K",202.07 ± 2.93 mole fraction × 10^3
same,"solubility, X^exp × 10^3","DMF+water, x2*(DMF)=0.4, 313.15 K",233.72 ± 14.10 mole fraction × 10^3
same,"solubility, X^exp × 10^3","DMF+water, x2*(DMF)=0.6, 298.15 K",231.63 ± 6.50 mole fraction × 10^3
same,"solubility, X^exp × 10^3","DMF+water, x2*(DMF)=0.6, 303.15 K",253.07 ± 9.75 mole fraction × 10^3
same,"solubility, X^exp × 10^3","DMF+water, x2*(DMF)=0.6, 308.15 K",281.23 ± 1.05 mole fraction × 10^3
same,"solubility, X^exp × 10^3","DMF+water, x2*(DMF)=0.6, 313.15 K",319.28 ± 11.90 mole fraction × 10^3
same,"solubility, X^exp × 10^3","DMF+water, x2*(DMF)=0.8, 298.15 K",268.17 ± 4.27 mole fraction × 10^3
same,"solubility, X^exp × 10^3","DMF+water, x2*(DMF)=0.8, 303.15 K",286.69 ± 8.71 mole fraction × 10^3
same,"solubility, X^exp × 10^3","DMF+water, x2*(DMF)=0.8, 308.15 K",317.90 ± 8.49 mole fraction × 10^3
same,"solubility, X^exp × 10^3","DMF+water, x2*(DMF)=0.8, 313.15 K",356.68 ± 8.53 mole fraction × 10^3
same,"solubility, X^exp × 10^3","DMSO+water, x2*(DMSO)=0.2, 298.15 K",35.84 ± 1.56 mole fraction × 10^3
same,"solubility, X^exp × 10^3","DMSO+water, x2*(DMSO)=0.2, 303.15 K",40.39 ± 0.41 mole fraction × 10^3
same,"solubility, X^exp × 10^3","DMSO+water, x2*(DMSO)=0.2, 308.15 K",45.37 ± 0.84 mole fraction × 10^3
same,"solubility, X^exp × 10^3","DMSO+water, x2*(DMSO)=0.2, 313.15 K",50.66 ± 1.03 mole fraction × 10^3
same,"solubility, X^exp × 10^3","DMSO+water, x2*(DMSO)=0.4, 298.15 K",136.28 ± 5.21 mole fraction × 10^3
same,"solubility, X^exp × 10^3","DMSO+water, x2*(DMSO)=0.4, 303.15 K",153.75 ± 0.89 mole fraction × 10^3
same,"solubility, X^exp × 10^3","DMSO+water, x2*(DMSO)=0.4, 308.15 K",175.06 ± 5.16 mole fraction × 10^3
same,"solubility, X^exp × 10^3","DMSO+water, x2*(DMSO)=0.4, 313.15 K",198.55 ± 12.9 mole fraction × 10^3
same,"solubility, X^exp × 10^3","DMSO+water, x2*(DMSO)=0.6, 298.15 K",257.01 ± 5.42 mole fraction × 10^3
same,"solubility, X^exp × 10^3","DMSO+water, x2*(DMSO)=0.6, 303.15 K",279.84 ± 7.39 mole fraction × 10^3
same,"solubility, X^exp × 10^3","DMSO+water, x2*(DMSO)=0.6, 308.15 K",307.25 ± 8.78 mole fraction × 10^3
same,"solubility, X^exp × 10^3","DMSO+water, x2*(DMSO)=0.6, 313.15 K",335.53 ± 2.01 mole fraction × 10^3
same,"solubility, X^exp × 10^3","DMSO+water, x2*(DMSO)=0.8, 298.15 K",301.83 ± 4.01 mole fraction × 10^3
same,"solubility, X^exp × 10^3","DMSO+water, x2*(DMSO)=0.8, 303.15 K",324.42 ± 10.85 mole fraction × 10^3
same,"solubility, X^exp × 10^3","DMSO+water, x2*(DMSO)=0.8, 308.15 K",352.69 ± 7.04 mole fraction × 10^3
same,"solubility, X^exp × 10^3","DMSO+water, x2*(DMSO)=0.8, 313.15 K",381.96 ± 8.16 mole fraction × 10^3
same,"solubility, X^exp × 10^3","DMSO+water, x2*=0.0 (neat water), 298.15 K",0.56 ± 0.03 mole fraction × 10^3
same,"solubility, X^exp × 10^3","DMSO+water, x2*=0.0 (neat water), 303.15 K",0.83 ± 0.01 mole fraction × 10^3
same,"solubility, X^exp × 10^3","DMSO+water, x2*=0.0 (neat water), 308.15 K",1.17 ± 0.04 mole fraction × 10^3
same,"solubility, X^exp × 10^3","DMSO+water, x2*=0.0 (neat water), 313.15 K",1.53 ± 0.03 mole fraction × 10^3
same,log(x1)exp,"solvent 4-Formylmorpholine, T 25.00 °C",-1.16
same,log(x1)exp,"solvent 4-Formylmorpholine, T 30.00 °C",-0.88
same,log(x1)exp,"solvent 4-Formylmorpholine, T 35.00 °C",-0.70
same,log(x1)exp,"solvent 4-Formylmorpholine, T 40.00 °C",-0.55
same,log(x1)exp,"solvent DMF, T 25.00 °C",-0.54
same,log(x1)exp,"solvent DMF, T 30.00 °C",-0.51
same,log(x1)exp,"solvent DMF, T 35.00 °C",-0.47
same,log(x1)exp,"solvent DMF, T 40.00 °C",-0.42
same,log(x1)exp,"solvent DMSO, T 25.00 °C",-0.50
same,log(x1)exp,"solvent DMSO, T 30.00 °C",-0.47
same,log(x1)exp,"solvent DMSO, T 35.00 °C",-0.43
same,log(x1)exp,"solvent DMSO, T 40.00 °C",-0.40
same,log(x1)exp,"solvent water, T 25.00 °C",-3.25
same,log(x1)exp,"solvent water, T 30.00 °C",-3.08
same,log(x1)exp,"solvent water, T 35.00 °C",-2.93
same,log(x1)exp,"solvent water, T 40.00 °C",-2.82
same,"solubility, X^exp × 10^3","x2*=1.0 (neat 4FM), 298.15 K",69.45 ± 0.49 mole fraction × 10^3
same,"solubility, X^exp × 10^3","x2*=1.0 (neat 4FM), 303.15 K",132.21 ± 4.61 mole fraction × 10^3
same,"solubility, X^exp × 10^3","x2*=1.0 (neat 4FM), 308.15 K",200.82 ± 7.43 mole fraction × 10^3
same,"solubility, X^exp × 10^3","x2*=1.0 (neat 4FM), 313.15 K",279.66 ± 2.42 mole fraction × 10^3
same,"solubility, X^exp × 10^3","x2*=1.0 (neat DMF), 298.15 K",288.65 ± 1.99 mole fraction × 10^3
same,"solubility, X^exp × 10^3","x2*=1.0 (neat DMF), 303.15 K",308.50 ± 5.81 mole fraction × 10^3
same,"solubility, X^exp × 10^3","x2*=1.0 (neat DMF), 308.15 K",336.89 ± 13.52 mole fraction × 10^3
same,"solubility, X^exp × 10^3","x2*=1.0 (neat DMF), 313.15 K",378.60 ± 8.94 mole fraction × 10^3
same,"solubility, X^exp × 10^3","x2*=1.0 (neat DMSO), 298.15 K",319.77 ± 2.83 mole fraction × 10^3
same,"solubility, X^exp × 10^3","x2*=1.0 (neat DMSO), 303.15 K",342.67 ± 5.19 mole fraction × 10^3
same,"solubility, X^exp × 10^3","x2*=1.0 (neat DMSO), 308.15 K",369.38 ± 9.57 mole fraction × 10^3
same,"solubility, X^exp × 10^3","x2*=1.0 (neat DMSO), 313.15 K",402.31 ± 9.04 mole fraction × 10^3
